This is an account of results in US20240148627A1, “[…] FOR THE SKIN” (priority 2021, published 2024).

This assay concerns Vaccinia virus Elstree strain. The class given is cell-based.

Each structure is given as a SMILES string.

For the compound `C=O` [formaldehyde], the “Reference trial inactivation of the virus” value turned out to be 3.13E+00 log DIT C50.
